Like-named read-outs stand apart in the source and are kept apart here.
What was measured:
rat brain synaptosome = experiment: Competitive rat brain synaptosome assay (displacement of tritiated brevetoxin PbTx-2); format: binding; settings: for Ki / EC50: competition with tritiated PbTx-2; for EC50: read-out: approximate EC50; for displacement of tritiated brevetoxin PbTx-2: compound added at about 1000× the concentration of the tritiated PbTx-2
Description: Competitive rat brain synaptosome assays were performed as described in Poli et al., 1986. […];

Male mosquito fish = format: in vivo; settings: for death of fish exposed to brevenal alone: monitored 24 h
Description: Male mosquito fish (n=104) were used in this assay. Fish were placed individually in 50 mL beakers containing 20 mL water. The test compounds (PbTx-2 and brevenal) were dissolved in EtOH at a concentration of 0.1 mg/mL and added to the fish in a total of 200 μL EtOH. The control fish received 200 uL EtOH. Fish were exposed to toxin alone (1 μg/mL water), brevenal alone (1 or 2 μg/mL water), or both brevenal (1.0 μg/mL water and toxin (1.0 μg/mL water) with the brevenal being added 3 min. before the toxin. After addition of the difference compounds the fish were monitored for 24 h. or until the time of death. Significant differences were determined using a two-way Student's t-test.

Molecule | Ki (rat brain synaptosome) [nM] | EC50 (rat brain synaptosome) [nM] | displacement of tritiated brevetoxin PbTx-2 (rat brain synaptosome) [%] | time of death after exposure, fish given brevenal and PbTx-2 (Male mosquito fish; brevenal 1.0 μg/mL water added 3 min. before PbTx-2 1.0 μg/mL water) | prolonging of life versus PbTx-2 only (Male mosquito fish; brevenal 1.0 μg/mL water added 3 min. before an equal concentration of PbTx-2) [fold] | death of fish exposed to brevenal alone (Male mosquito fish; brevenal alone 1 μg/ml water) | death of fish exposed to brevenal alone (Male mosquito fish; brevenal alone 2 μg/ml water)
C=C/C=C\CC[C@H]1O[C@H]2CC[C@@]3(C)O[C@H]4[C@@H](O)C[C@@]5(C)O[C@@H](CC/C=C(C)/C(C)=C/C=O)[C@@H](C)C[C@@H]5O[C@@H]4C[C@@H]3O[C@@H]2CC[C@@]1(C)O [brevenal] | 1860 | ~3690 | ~80 | about 17 min. | ~2.5 | did not die after 24 h | did not die after 24 h
di-O-Me brevenal | 680 | ~1350 | ~80 |  |  |  | 

Reference: patent US9133232B2, “Fused pentacyclic polyethers” (priority 2003, dated 2015)
